Data from article PMC5845353, “The selective cathepsin K inhibitor MIV-711 attenuates joint pathology in experimental animal models of osteoarthritis” (Journal of Translational Medicine, 2018).

Tested on: rabbits subjected to anterior cruciate ligament transection (ACLT)
Test: Rabbit ACLT study, histomorphometry of bone, cartilage and osteophytes
Type: in vivo
Procedure: The femora and tibias were decalcified, embedded in paraffin, sectioned at 5-7 µm at two different levels separated by approximately 2 mm, and stained with safranin O and toluidine blue.
Both tibial plateaus and femoral condyles (i.e. four joint compartments) were also subjected to histomorphometric analysis of cartilage, subchondral bone, cancellous bone, and osteophytes. The measurements were made using OsteoMeasureXP version 3.3.0.2 as follows:
Uncalcified cartilage area was measured by tracing the articular surface (cartilage perimeter) and bone or calcified cartilage/uncalcified cartilage interface (cartilage boundary).
Cartilage width was measured by point to point measurement at intersections between a sampling grid with approximately 0.5 mm spacing and the cartilage boundary. The intercepts measured were orthogonal to the cartilage boundary and ended at the cartilage perimeter. At intersections where the cartilage width was zero due to erosion, a value of zero was recorded.
Subchondral bone width was measured by point to point measurement at intersections between a sampling grid with approximately 0.5 mm spacing and the cartilage boundary. The intercepts measured were orthogonal to the cartilage boundary and ended at the first marrow cavity encountered that had at least one dimension approximately equivalent to nearby trabecular thickness.
Osteophyte area was measured for abaxial osteophytes. On the femur, osteophytes associated with the condyles but not with the trochlear grooves were measured.
Bone area (including osteoid) and perimeter were measured in a 3.8 X 1.5 mm ROI centered approximately 1 mm below the bone/cartilage interface. This ROI was intended to be equivalent to the subchondral cancellous bone VOI measured by microCT. Bone volume (BV/TV), trabecular thickness (Tb.Th), trabecular number (Tb.N) and trabecular separation (Tb.Sp) were derived from these measurements using standard formulae.
Slides were evaluated in animal ID order, i.e. in random order with respect to treatment, so that the measurer was effectively blinded to treatment assignment.
Analysis was performed on all four condyles at two levels (Level 1 and 2) for each condyle:
Group 1) sham + vehicle; Group 2) ACLT + vehicle; Group 3) ACLT + MIV-711, 30 µmol/kg (low dose) and Group 4) ACLT + MIV-711, 100 µmol/kg (high dose).

[1] = Level 1 LFC, Group 3, ACLT + MIV-711 30 µmol/kg
[2] = Level 1 LFC, Group 4, ACLT + MIV-711 100 µmol/kg
[3] = Level 1 LTP, Group 3, ACLT + MIV-711 30 µmol/kg
[4] = Level 1 LTP, Group 4, ACLT + MIV-711 100 µmol/kg
[5] = Level 1 MFC, Group 3, ACLT + MIV-711 30 µmol/kg
[6] = Level 1 MFC, Group 4, ACLT + MIV-711 100 µmol/kg

C#C[C@@H]1CN(C(=O)[C@H](CC(C)C)NC(=O)c2ccc(-c3nc(N4CCN(C)CC4)sc3F)cc2)[C@@H]2C(=O)CO[C@H]12 [MIV-711]
effect on osteophyte parameters at the microscopic level (ACLT rabbits, 30 and 100 µmol/kg): did not affect
Cart.Bd, Mean (Level 1, MFC, Group 3): 8.37 mm
Cart.Bd, Median (Level 1, MFC, Group 3): 8.42 mm
Cart.Pm, Mean (Level 1, MFC, Group 3): 9.31 mm
Cart.Pm, Median (Level 1, MFC, Group 3): 9.55 mm
Cart.Wi, Mean (Level 1, MFC, Group 3): 264.49 µm
Cart.Wi, Median (Level 1, MFC, Group 3): 233.46 µm
SCB.Wi, Mean (Level 1, MFC, Group 3): 796.52 µm
SCB.Wi, Median (Level 1, MFC, Group 3): 695.73 µm
Cart.Bd, Mean (Level 1, MFC, Group 4): 8.94 mm
Cart.Bd, Median (Level 1, MFC, Group 4): 8.89 mm
Cart.Pm, Mean (Level 1, MFC, Group 4): 10.24 mm
Cart.Pm, Median (Level 1, MFC, Group 4): 10.20 mm
Cart.Wi, Mean (Level 1, MFC, Group 4): 323.96 µm
Cart.Wi, Median (Level 1, MFC, Group 4): 341.58 µm
SCB.Wi, Mean (Level 1, MFC, Group 4): 655.48 µm
SCB.Wi, Median (Level 1, MFC, Group 4): 627.36 µm
BV/TV, Mean (Level 1, MTP, Group 3): 37.43%
BV/TV, Median (Level 1, MTP, Group 3): 39.13%
Cart.Ar, Mean (Level 1, MTP, Group 3): 3.43 mm2
Cart.Ar, Median (Level 1, MTP, Group 3): 3.15 mm2
Cart.Bd, Mean (Level 1, MTP, Group 3): 5.74 mm
Cart.Bd, Median (Level 1, MTP, Group 3): 5.82 mm
Cart.Pm, Mean (Level 1, MTP, Group 3): 5.96 mm
Cart.Pm, Median (Level 1, MTP, Group 3): 5.73 mm
Cart.Wi, Mean (Level 1, MTP, Group 3): 627.75 µm
Cart.Wi, Median (Level 1, MTP, Group 3): 633.18 µm
Ophte.Ar, Mean (Level 1, MTP, Group 3): 7.76 mm2
Ophte.Ar, Median (Level 1, MTP, Group 3): 7.61 mm2
SCB.Wi, Mean (Level 1, MTP, Group 3): 718.50 µm
SCB.Wi, Median (Level 1, MTP, Group 3): 715.91 µm
Tb.N, Mean (Level 1, MTP, Group 3): 2.07 1/mm
Tb.N, Median (Level 1, MTP, Group 3): 1.97 1/mm
Tb.Sp, Mean (Level 1, MTP, Group 3): 306.15 µm
Tb.Sp, Median (Level 1, MTP, Group 3): 294.58 µm
Tb.Th, Mean (Level 1, MTP, Group 3): 182.44 µm
Tb.Th, Median (Level 1, MTP, Group 3): 174.84 µm
BV/TV, Mean (Level 1, MTP, Group 4): 35.92%
BV/TV, Median (Level 1, MTP, Group 4): 35.01%
Cart.Ar, Mean (Level 1, MTP, Group 4): 2.98 mm2
Cart.Ar, Median (Level 1, MTP, Group 4): 3.00 mm2
Cart.Bd, Mean (Level 1, MTP, Group 4): 5.22 mm
Cart.Bd, Median (Level 1, MTP, Group 4): 5.08 mm
Cart.Pm, Mean (Level 1, MTP, Group 4): 6.31 mm
Cart.Pm, Median (Level 1, MTP, Group 4): 5.70 mm
Cart.Wi, Mean (Level 1, MTP, Group 4): 618.52 µm
Cart.Wi, Median (Level 1, MTP, Group 4): 551.09 µm
Ophte.Ar, Mean (Level 1, MTP, Group 4): 9.09 mm2
Ophte.Ar, Median (Level 1, MTP, Group 4): 7.85 mm2
SCB.Wi, Mean (Level 1, MTP, Group 4): 839.92 µm
SCB.Wi, Median (Level 1, MTP, Group 4): 790.92 µm
Tb.N, Mean (Level 1, MTP, Group 4): 1.91 1/mm
Tb.N, Median (Level 1, MTP, Group 4): 1.80 1/mm
Tb.Sp, Mean (Level 1, MTP, Group 4): 346.56 µm
Tb.Sp, Median (Level 1, MTP, Group 4): 370.02 µm
Tb.Th, Mean (Level 1, MTP, Group 4): 190.56 µm
Tb.Th, Median (Level 1, MTP, Group 4): 188.86 µm
BV/TV, Mean [1]: 37.49%
BV/TV, Median [1]: 36.26%
Cart.Ar, Mean [1]: 2.52 mm2
Cart.Ar, Median [1]: 2.55 mm2
Cart.Bd, Mean [1]: 9.42 mm
Cart.Bd, Median [1]: 9.52 mm
Cart.Pm, Mean [1]: 10.23 mm
Cart.Pm, Median [1]: 10.40 mm
Cart.Wi, Mean [1]: 263.55 µm
Cart.Wi, Median [1]: 269.31 µm
Ophte.Ar, Mean [1]: 2.48 mm2
Ophte.Ar, Median [1]: 1.89 mm2
SCB.Wi, Mean [1]: 527.88 µm
SCB.Wi, Median [1]: 537.74 µm
Tb.N, Mean [1]: 2.87 1/mm
Tb.N, Median [1]: 2.78 1/mm
Tb.Sp, Mean [1]: 221.27 µm
Tb.Sp, Median [1]: 221.54 µm
Tb.Th, Mean [1]: 131.58 µm
Tb.Th, Median [1]: 132.19 µm
BV/TV, Mean [2]: 40.76%
BV/TV, Median [2]: 39.99%
Cart.Ar, Mean [2]: 3.28 mm2
Cart.Ar, Median [2]: 3.33 mm2
Cart.Bd, Mean [2]: 11.05 mm
Cart.Bd, Median [2]: 11.43 mm
Cart.Pm, Mean [2]: 11.98 mm
Cart.Pm, Median [2]: 12.38 mm
Cart.Wi, Mean [2]: 290.77 µm
Cart.Wi, Median [2]: 272.05 µm
Ophte.Ar, Mean [2]: 3.18 mm2
Ophte.Ar, Median [2]: 1.06 mm2
SCB.Wi, Mean [2]: 478.03 µm
SCB.Wi, Median [2]: 466.56 µm
Tb.N, Mean [2]: 2.76 1/mm
Tb.N, Median [2]: 2.79 1/mm
Tb.Sp, Mean [2]: 215.44 µm
Tb.Sp, Median [2]: 222.15 µm
Tb.Th, Mean [2]: 147.91 µm
Tb.Th, Median [2]: 146.15 µm
BV/TV, Mean [3]: 43.89%
BV/TV, Median [3]: 43.62%
Cart.Ar, Mean [3]: 2.03 mm2
Cart.Ar, Median [3]: 2.02 mm2
Cart.Bd, Mean [3]: 6.10 mm
Cart.Bd, Median [3]: 6.13 mm
Cart.Pm, Mean [3]: 6.15 mm
Cart.Pm, Median [3]: 6.13 mm
Cart.Wi, Mean [3]: 340.85 µm
Cart.Wi, Median [3]: 342.70 µm
Ophte.Ar, Mean [3]: 0.43 mm2
Ophte.Ar, Median [3]: 0.58 mm2
SCB.Wi, Mean [3]: 532.09 µm
SCB.Wi, Median [3]: 572.30 µm
Tb.N, Mean [3]: 2.79 1/mm
Tb.N, Median [3]: 2.77 1/mm
Tb.Sp, Mean [3]: 202.57 µm
Tb.Sp, Median [3]: 211.29 µm
Tb.Th, Mean [3]: 159.11 µm
Tb.Th, Median [3]: 141.92 µm
BV/TV, Mean [4]: 43.87%
BV/TV, Median [4]: 45.02%
Cart.Ar, Mean [4]: 2.49 mm2
Cart.Ar, Median [4]: 2.63 mm2
Cart.Bd, Mean [4]: 6.56 mm
Cart.Bd, Median [4]: 6.67 mm
Cart.Pm, Mean [4]: 6.48 mm
Cart.Pm, Median [4]: 6.62 mm
Cart.Wi, Mean [4]: 391.09 µm
Cart.Wi, Median [4]: 393.49 µm
Ophte.Ar, Mean [4]: 0.62 mm2
Ophte.Ar, Median [4]: 0.37 mm2
SCB.Wi, Mean [4]: 557.78 µm
SCB.Wi, Median [4]: 592.81 µm
Tb.N, Mean [4]: 2.47 1/mm
Tb.N, Median [4]: 2.39 1/mm
Tb.Sp, Mean [4]: 232.42 µm
Tb.Sp, Median [4]: 223.55 µm
Tb.Th, Mean [4]: 179.81 µm
Tb.Th, Median [4]: 179.09 µm
BV/TV, Mean [5]: 52.87%
BV/TV, Median [5]: 51.00%
Cart.Ar, Mean [5]: 2.30 mm2
Cart.Ar, Median [5]: 2.03 mm2
Ophte.Ar, Mean [5]: 2.75 mm2
Ophte.Ar, Median [5]: 2.12 mm2
Tb.N, Mean [5]: 2.87 1/mm
Tb.N, Median [5]: 2.98 1/mm
Tb.Sp, Mean [5]: 164.11 µm
Tb.Sp, Median [5]: 161.32 µm
Tb.Th, Mean [5]: 190.82 µm
Tb.Th, Median [5]: 169.90 µm
BV/TV, Mean [6]: 46.41%
BV/TV, Median [6]: 48.01%
Cart.Ar, Mean [6]: 2.99 mm2
Cart.Ar, Median [6]: 3.31 mm2
Ophte.Ar, Mean [6]: 5.87 mm2
Ophte.Ar, Median [6]: 1.02 mm2
Tb.N, Mean [6]: 2.87 1/mm
Tb.N, Median [6]: 2.92 1/mm
Tb.Sp, Mean [6]: 189.94 µm
Tb.Sp, Median [6]: 173.69 µm
Tb.Th, Mean [6]: 161.31 µm
